Several values for one entry are separate records, joined by “and”; a condition that tells them apart may be missing. Equal entries are not always repeated.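 Each compound was tested at five concentrations against cells in 96-well plates for 48 hours. Abbreviation: GI50, concentration required for 50% inhibition of growth. TGI denotes the concentration required for complete inhibition of growth.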
Assays:
Experiment in all cases: DTP human tumour cell line panel, 48 h
DLD-1 colon = tested on: DLD-1 colon
LXFL 529 NSCLC = tested on: LXFL 529 NSCLC
SNB-78 CNS = tested on: SNB-78 CNS
RXF-631 renal = tested on: RXF-631 renal
HOP-18 NSCLC = tested on: HOP-18 NSCLC
DMS 114 small cell lung = tested on: DMS 114 small cell lung

Compound: COc1cc([C@@H]2c3cc4c(cc3[C@@H](NCc3ccccc3F)C3COC(=O)[C@@H]32)OCO4)cc(OC)c1O (stereo not given in full)
- TGI (DLD-1 colon): > 100 µM
- TGI (LXFL 529 NSCLC): 88.2 µM
- TGI (SNB-78 CNS): > 100 µM
- TGI (RXF-631 renal): 19.8 µM
- TGI (HOP-18 NSCLC): > 100 µM
- TGI (DMS 114 small cell lung): 28.3 µM

Compound: CC(=O)OCC12CC(CC1OC(C)=O)c1ccccc12 (stereo not given)
- TGI (LXFL 529 NSCLC): > 100 µM
- TGI (RXF-631 renal): > 100 µM
- TGI (HOP-18 NSCLC): > 100 µM
- TGI (DMS 114 small cell lung): > 100 µM

Compound: CC(C)N(C(=O)C12C3C4C5C3C1(C(=O)O)C5C42)C(C)C (stereo not given)
- TGI (DLD-1 colon): > 100 µM
- TGI (LXFL 529 NSCLC): > 100 µM
- TGI (SNB-78 CNS): > 100 µM
- TGI (RXF-631 renal): > 100 µM
- TGI (DMS 114 small cell lung): > 100 µM

Compound: COc1cc2c(c(OC)c1OC)-c1ccc(SC)c(=O)cc1[C@@H](NC(=O)c1cccc([N+](=O)[O-])c1)CC2
- TGI (DLD-1 colon): > 100 µM
- TGI (SNB-78 CNS): > 100 µM
- GI50 (DMS 114 small cell lung): 0.0165 µM
- TGI (DMS 114 small cell lung): 0.0365 µM

Compound: Cc1ccc(C(=O)NC2CCCCC2)cc1N=NN(C)C
- TGI (DLD-1 colon): > 100 µM
- TGI (LXFL 529 NSCLC): > 100 µM
- TGI (SNB-78 CNS): > 100 µM

Compound: NC(=O)N/N=C(\CC1OC(=O)c2ccccc21)c1ccc([N+](=O)[O-])cc1 (stereo not given)
- TGI (DLD-1 colon): 47.9 µM
- TGI (LXFL 529 NSCLC): > 100 µM

Compound: CC(C)C1=Cc2ccc3c(c2C(=O)C1=O)CCCC3
- TGI (DLD-1 colon): 3.31 µM
- TGI (LXFL 529 NSCLC): 2.52 µM
- TGI (SNB-78 CNS): 11.9 µM
- TGI (RXF-631 renal): 25.1 µM
- TGI (HOP-18 NSCLC): 8.96 µM
- TGI (DMS 114 small cell lung): 3.61 µM

Compound: N#CC(NNC(=O)Cc1ccccc1)c1ccc([N+](=O)[O-])cc1 (stereo not given)
- TGI (DLD-1 colon): > 100 µM
- TGI (LXFL 529 NSCLC): > 100 µM
- TGI (SNB-78 CNS): > 100 µM
- TGI (HOP-18 NSCLC): > 100 µM

Compound: CC1(O)CC2C(CC1SC1CC3C(CC1(C)O)C3(C)C)C2(C)C (stereo not given)
- TGI (DLD-1 colon): > 100 µM
- TGI (LXFL 529 NSCLC): > 100 µM
- TGI (SNB-78 CNS): > 100 µM
- TGI (HOP-18 NSCLC): > 100 µM
- TGI (DMS 114 small cell lung): > 100 µM

Compound: O=C1C(Cl)C(c2ccccc2Cl)N1n1cnc2ccccc2c1=O (stereo not given)
- TGI (DLD-1 colon): > 100 µM
- TGI (LXFL 529 NSCLC): > 100 µM
- TGI (SNB-78 CNS): > 100 µM
- TGI (DMS 114 small cell lung): > 100 µM

Compound: O=C(CCN1CCCCC1)Nc1ccc2c(c1)C(=O)c1ccc(NC(=O)CCN3CCCCC3)cc1C2=O
- TGI (DLD-1 colon): 15 µM
- TGI (LXFL 529 NSCLC): 4.64 µM
- TGI (SNB-78 CNS): 29.8 µM
- TGI (HOP-18 NSCLC): 30.7 µM
- TGI (DMS 114 small cell lung): 34.7 µM

Compound: N=S(c1ccccc1[N+](=O)[O-])c1ccccc1[N+](=O)[O-]
- GI50 (DLD-1 colon): 1.81 µM and 0.636 µM
- TGI (DLD-1 colon): 4.15 µM and 2.08 µM
- TGI (LXFL 529 NSCLC): 7.83 µM and 5.92 µM
- TGI (SNB-78 CNS): 9.2 µM and 8.28 µM
- TGI (RXF-631 renal): 3.43 µM
- TGI (HOP-18 NSCLC): 19.5 µM and 15.8 µM

Compound: Cc1cc(Cl)ccc1NC(=O)/C(=N\NC(C)(C)C)C(C#N)c1nc(-c2ccc([N+](=O)[O-])cc2)cs1 (stereo not given)
- TGI (DLD-1 colon): > 100 µM
- TGI (LXFL 529 NSCLC): > 100 µM
- TGI (SNB-78 CNS): > 100 µM
- TGI (RXF-631 renal): > 100 µM
- TGI (HOP-18 NSCLC): > 100 µM
- TGI (DMS 114 small cell lung): > 100 µM

Compound: CCc1cccc(C(C)C)c1NC(=O)/C(=N\NC(N)=O)C(C(=O)OC)c1cnc2ccccc2n1 (stereo not given)
- TGI (DLD-1 colon): > 100 µM
- TGI (LXFL 529 NSCLC): > 100 µM
- TGI (SNB-78 CNS): > 100 µM
- TGI (RXF-631 renal): > 100 µM
- TGI (HOP-18 NSCLC): 98.2 µM
- TGI (DMS 114 small cell lung): 54.2 µM

Compound: CCOC(=O)C(C)NC(=O)NC12CC3CC(CC(F)(C3)C1)C2 (stereo not given)
- TGI (DLD-1 colon): > 100 µM
- TGI (LXFL 529 NSCLC): > 100 µM
- TGI (SNB-78 CNS): 83.3 µM
- TGI (DMS 114 small cell lung): > 100 µM

Compound: CC(=O)NC(CCCCNCc1ccccc1)C(=O)NCc1ccccc1 (stereo not given)
- TGI (DLD-1 colon): > 100 µM
- TGI (LXFL 529 NSCLC): > 100 µM
- TGI (SNB-78 CNS): > 100 µM
- TGI (DMS 114 small cell lung): > 100 µM

Compound: COC(=O)C(Cc1nc2ccc(Cl)cc2[nH]c1=O)C(=O)C(=O)Nc1cc(C)ccc1C (stereo not given)
- TGI (DLD-1 colon): > 100 µM
- TGI (LXFL 529 NSCLC): > 100 µM
- TGI (SNB-78 CNS): > 100 µM
- TGI (RXF-631 renal): > 100 µM
- TGI (HOP-18 NSCLC): > 100 µM
- TGI (DMS 114 small cell lung): > 100 µM

Compound: CN(C)CC1(C)CC/C(=C\c2ccc(Cl)cc2)C1=O (stereo not given)
- TGI (DLD-1 colon): 85.7 µM
- TGI (LXFL 529 NSCLC): 40.8 µM
- TGI (SNB-78 CNS): > 100 µM
- TGI (HOP-18 NSCLC): > 100 µM
- TGI (DMS 114 small cell lung): 56.2 µM

Compound: Cc1ccc(NC(=O)C2C3C=CC(O3)C2C(=O)O)cc1 (stereo not given)
- TGI (DLD-1 colon): > 100 µM
- TGI (LXFL 529 NSCLC): > 100 µM
- TGI (SNB-78 CNS): > 100 µM
- TGI (HOP-18 NSCLC): > 100 µM
- TGI (DMS 114 small cell lung): > 100 µM

Compound: O=C1/C(=C/c2ccccc2Cl)COc2ccc(Br)cc21
- TGI (DLD-1 colon): > 100 µM
- TGI (LXFL 529 NSCLC): > 100 µM
- TGI (SNB-78 CNS): > 100 µM
- TGI (HOP-18 NSCLC): > 100 µM
- TGI (DMS 114 small cell lung): > 100 µM

Compound: CC(=O)NC(CCCNC(=O)N(C)N=O)C(=O)NCc1ccccc1 (stereo not given)
- TGI (DLD-1 colon): > 100 µM
- TGI (LXFL 529 NSCLC): > 100 µM
- TGI (SNB-78 CNS): > 100 µM
- TGI (RXF-631 renal): > 100 µM
- TGI (DMS 114 small cell lung): > 100 µM

Compound: Cc1cc(N(CCC#N)CCC#N)ccc1/C=C1N=C(/C=C\c2ccccc2)N(NC(=O)CC(=O)Nc2ccccc2Cl)C\1=O
- TGI (DLD-1 colon): > 100 µM
- TGI (LXFL 529 NSCLC): > 100 µM
- TGI (RXF-631 renal): > 100 µM
- TGI (HOP-18 NSCLC): > 100 µM
- TGI (DMS 114 small cell lung): > 100 µM

From PubChem BioAssay (NCI)
